# Source: ChEMBL document CHEMBL1201862, “PubChem BioAssay data set” (2004)
#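 Each compound was tested at five concentrations against cells in 96-well plates for 48 hours. At the GI50, growth is halved.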 Active and inactive are the calls of the source. Rule as the data show it: active = GI50 up to about 1.1 µM and inactive = higher.
# Tests used:
# Experiment in all cases: NCI tumour cell line growth inhibition, 48 h
# [1] = test system: 786-0
# [2] = test system: BT-549
# [3] = test system: CCRF-CEM
# [4] = test system: COLO 205
# [5] = test system: HOP-92
# [6] = test system: K562
# [7] = test system: KM12
# [8] = test system: LOX IMVI
# [9] = test system: MCF7
# [10] = test system: NCI-H460
# [11] = test system: OVCAR-5
# [12] = test system: OVCAR-8
# [13] = test system: RXF 393
# [14] = test system: SF-268
# [15] = test system: SF-539
# [16] = test system: SK-MEL-2
# [17] = test system: SK-OV-3
# [18] = test system: SNB-19
# [19] = test system: TK-10
# [20] = test system: UACC-62
Compound,GI50 [1],GI50 [2],GI50 [3],GI50 [4],GI50 [5],GI50 [6],GI50 [7],GI50 [8],GI50 [9],GI50 [10],GI50 [11],GI50 [12],GI50 [13],GI50 [14],GI50 [15],GI50 [16],GI50 [17],GI50 [18],GI50 [19],GI50 [20]
S=C(NCCc1ccccn1)N/N=C(\c1ccccc1)c1ccccn1,1.47 µM (inactive),3.3 µM (inactive),< 0.01 µM (active),< 0.01 µM (active),1.63 µM (inactive),< 0.01 µM (active),2.76 µM (inactive),0.301 µM (active),< 0.01 µM (active),0.179 µM (active),7.82 µM (inactive),< 0.01 µM (active),2.4 µM (inactive),0.222 µM (active),0.63 µM (active),21.5 µM (inactive),0.815 µM (active),5.43 µM (inactive),1.33 µM (inactive),1.03 µM (active)
COc1cc2nc(-c3c(F)cccc3F)n(Cc3c(F)cccc3F)c2cc1Cc1c(F)cccc1F,> 100 µM (inactive),> 71.8 µM (inactive),> 100 µM (inactive),> 100 µM (inactive),2.79 µM (inactive),> 28.6 µM (inactive),3.77 µM (inactive),> 100 µM (inactive),3.47 µM (inactive),15.3 µM (inactive),> 100 µM (inactive),> 100 µM (inactive),1.55 µM (inactive),> 72.1 µM (inactive),> 68.7 µM (inactive),> 49.8 µM (inactive),> 100 µM (inactive),> 100 µM (inactive),> 100 µM (inactive),2.64 µM (inactive)
Cn1c(-c2cccc(N)c2)[n+](C)c2ccccc21,> 100 µM (inactive),> 100 µM (inactive),53.1 µM (inactive),38.7 µM (inactive),> 100 µM (inactive),> 100 µM (inactive),> 100 µM (inactive),> 100 µM (inactive),> 100 µM (inactive),> 100 µM (inactive),> 100 µM (inactive),> 100 µM (inactive),> 100 µM (inactive),> 100 µM (inactive),> 100 µM (inactive),> 100 µM (inactive),> 100 µM (inactive),60.3 µM (inactive),> 100 µM (inactive),> 100 µM (inactive)
CCOC(=O)/C=C(/C(=O)OCC)n1ccc(=O)[nH]c1=O,3.36 µM (inactive),12.2 µM (inactive),1.14 µM (inactive),1.65 µM (inactive),2.07 µM (inactive),2.23 µM (inactive),17.6 µM (inactive),7.48 µM (inactive),4.19 µM (inactive),14.6 µM (inactive),5.93 µM (inactive),13 µM (inactive),4.21 µM (inactive),15.6 µM (inactive),18.9 µM (inactive),15.8 µM (inactive),18.7 µM (inactive),15.4 µM (inactive),3.73 µM (inactive),11.8 µM (inactive)
O=C1C=C(Cl)C(=O)C(c2ccc(Cl)cc2)=C1,22.1 µM (inactive),23.8 µM (inactive),3.35 µM (inactive),16.4 µM (inactive),19.3 µM (inactive),4.19 µM (inactive),32.3 µM (inactive),16.1 µM (inactive),16.3 µM (inactive),79.6 µM (inactive),17 µM (inactive),18.2 µM (inactive),18.4 µM (inactive),19.7 µM (inactive),16.9 µM (inactive),18.6 µM (inactive),47.3 µM (inactive),89.3 µM (inactive),21.2 µM (inactive),17.4 µM (inactive)
CC1=Nc2nc3ccccc3n2C(C)(C)C1,> 100 µM (inactive),> 100 µM (inactive),> 100 µM (inactive),> 100 µM (inactive),> 100 µM (inactive),> 100 µM (inactive),> 100 µM (inactive),> 100 µM (inactive),> 100 µM (inactive),> 100 µM (inactive),> 100 µM (inactive),> 100 µM (inactive),> 100 µM (inactive),> 100 µM (inactive),> 100 µM (inactive),> 100 µM (inactive),> 100 µM (inactive),> 100 µM (inactive),> 100 µM (inactive),> 100 µM (inactive)
CN(C)c1nc(N)nc(CS)n1,> 100 µM (inactive),> 100 µM (inactive),25.5 µM (inactive),> 100 µM (inactive),> 100 µM (inactive),29.9 µM (inactive),> 100 µM (inactive),42.3 µM (inactive),> 100 µM (inactive),46 µM (inactive),> 100 µM (inactive),> 100 µM (inactive),> 100 µM (inactive),> 100 µM (inactive),> 100 µM (inactive),36.2 µM (inactive),> 100 µM (inactive),> 100 µM (inactive),> 100 µM (inactive),61.4 µM (inactive)
CN(C(=O)c1ccccc1)C1CCCC(=O)CC1 (stereo not given),> 100 µM (inactive),> 100 µM (inactive),> 100 µM (inactive),> 100 µM (inactive),> 100 µM (inactive),> 100 µM (inactive),> 100 µM (inactive),> 100 µM (inactive),> 100 µM (inactive),> 100 µM (inactive),> 100 µM (inactive),> 100 µM (inactive),> 100 µM (inactive),> 100 µM (inactive),> 100 µM (inactive),> 100 µM (inactive),> 100 µM (inactive),> 100 µM (inactive),> 100 µM (inactive),> 100 µM (inactive)
COc1ccc(C(CC(=O)c2ccc3c(c2)OCO3)c2c(O)oc3ccccc3c2=O)cc1OC (stereo not given),> 100 µM (inactive),36.2 µM (inactive),> 100 µM (inactive),63.4 µM (inactive),38.5 µM (inactive),63.5 µM (inactive),> 100 µM (inactive),66.5 µM (inactive),69.3 µM (inactive),44.7 µM (inactive),> 100 µM (inactive),> 100 µM (inactive),> 100 µM (inactive),> 100 µM (inactive),> 100 µM (inactive),> 100 µM (inactive),> 100 µM (inactive),> 100 µM (inactive),67.8 µM (inactive),40.6 µM (inactive)
CN(CCNC(=O)c1nn(-c2ccc(Cl)cc2Cl)c2c1Cc1ccccc1-2)CCNC(=O)c1nn(-c2ccc(Cl)cc2Cl)c2c1Cc1ccccc1-2,2.16 µM (inactive),7.38 µM (inactive),2.27 µM (inactive),1.81 µM (inactive),1.99 µM (inactive),1.57 µM (inactive),3.49 µM (inactive),2.07 µM (inactive),2.56 µM (inactive),1.75 µM (inactive),20 µM (inactive),2.07 µM (inactive),2.25 µM (inactive),12.1 µM (inactive),1.85 µM (inactive),2.05 µM (inactive),15.7 µM (inactive),3.71 µM (inactive),6.31 µM (inactive),1.85 µM (inactive)
O=C(NC(=S)Nc1ccc2c(c1)Sc1ccccc1O2)c1ccc([N+](=O)[O-])cc1,> 100 µM (inactive),> 100 µM (inactive),> 100 µM (inactive),> 100 µM (inactive),> 100 µM (inactive),> 100 µM (inactive),> 100 µM (inactive),> 100 µM (inactive),> 100 µM (inactive),> 100 µM (inactive),> 100 µM (inactive),> 100 µM (inactive),> 100 µM (inactive),> 100 µM (inactive),> 100 µM (inactive),> 100 µM (inactive),> 100 µM (inactive),> 100 µM (inactive),> 100 µM (inactive),> 100 µM (inactive)
CC(NNC(=O)c1cc[n+]([BH2-]C#N)cc1)c1ccccc1 (stereo not given),> 100 µM (inactive),> 100 µM (inactive),> 100 µM (inactive),> 100 µM (inactive),> 100 µM (inactive),> 100 µM (inactive),> 100 µM (inactive),> 100 µM (inactive),> 100 µM (inactive),> 100 µM (inactive),> 100 µM (inactive),> 100 µM (inactive),> 100 µM (inactive),> 100 µM (inactive),> 100 µM (inactive),> 100 µM (inactive),> 100 µM (inactive),> 100 µM (inactive),> 100 µM (inactive),> 100 µM (inactive)
COc1cc(OC)c2c(c1)OC(c1ccccc1)CC2=O (stereo not given) [DIMETHYLPINOCEMBRIN],> 10 µM (inactive),> 10 µM (inactive),> 10 µM (inactive),> 10 µM (inactive),> 10 µM (inactive),> 10 µM (inactive),> 10 µM (inactive),> 10 µM (inactive),> 10 µM (inactive),> 10 µM (inactive),> 10 µM (inactive),> 10 µM (inactive),> 10 µM (inactive),> 10 µM (inactive),> 10 µM (inactive),> 10 µM (inactive),> 10 µM (inactive),> 10 µM (inactive),> 10 µM (inactive),> 10 µM (inactive)
COc1cc(/C=C/c2ccc(C)cc2)cc(OC)c1OC,3.87 µM (inactive),5.68 µM (inactive),3.45 µM (inactive),3.16 µM (inactive),9.33 µM (inactive),3.1 µM (inactive),3.66 µM (inactive),6.14 µM (inactive),3.46 µM (inactive),3.85 µM (inactive),12.7 µM (inactive),4.43 µM (inactive),4.42 µM (inactive),5.37 µM (inactive),2.42 µM (inactive),7.18 µM (inactive),6.84 µM (inactive),4.21 µM (inactive),7.69 µM (inactive),3.44 µM (inactive)
